Experimental findings from patent US20090215894A1, “INHIBITION OF PHOSPHATASE ACTIVITY OF SOLUBLE EPOXIDE HYDROLASE AMINO TERMINUS AND USES THEREOF” (REGENTS OF THE UNIVERSITY OF CALIFORNIA, priority 2005, published 2009) are described below.

Structures are written as SMILES. Where a name gives a salt, the structure may show the parent alone. Read-outs that look alike come from different tables or passages of the source.

Format in all cases: biochemical
Assay [1] concerns the target T1, Nterm-phos (Homo sapiens, UniProt P34913).
T1 construct: use of a truncated enzyme from crude extract versus purified full-length human sEH; made in house; host or cells: baculovirus expression system (insect cells)
T1 sequence (P34913 1-555): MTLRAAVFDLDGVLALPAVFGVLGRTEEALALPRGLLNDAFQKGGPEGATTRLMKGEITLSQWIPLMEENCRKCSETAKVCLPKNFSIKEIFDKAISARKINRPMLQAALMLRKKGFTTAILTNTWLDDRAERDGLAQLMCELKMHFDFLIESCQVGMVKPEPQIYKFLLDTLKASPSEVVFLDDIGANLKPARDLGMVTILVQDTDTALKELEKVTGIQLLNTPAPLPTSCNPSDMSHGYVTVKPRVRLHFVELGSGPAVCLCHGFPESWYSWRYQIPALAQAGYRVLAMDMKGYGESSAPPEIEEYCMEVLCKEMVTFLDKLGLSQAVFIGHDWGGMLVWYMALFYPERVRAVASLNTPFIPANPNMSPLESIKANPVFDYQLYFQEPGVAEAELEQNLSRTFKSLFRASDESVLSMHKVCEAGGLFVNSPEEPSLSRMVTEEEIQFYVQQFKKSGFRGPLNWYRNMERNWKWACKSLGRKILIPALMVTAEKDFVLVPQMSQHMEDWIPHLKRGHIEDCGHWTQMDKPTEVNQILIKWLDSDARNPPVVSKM
Nature of the assay: Specific activity of Nterm-phos for lipid-phosphates (phosphoric acid formed). Particulars: substrate hydrolysis, 30° C., average ± SD of three experiments. Here is the method:
Nterm-Phos activity was measured in Bis-Tris HCl buffer (25 mM PH 7.0) containing 0.1 mg/mL of Fraction V BSA and 1 mM of MgCl2 (buffer A) at 30° C. […] APHP activity was measured as described using 7 as substrate (Newman et al., Proc. Natl. Acad. Sci. USA. 100, 1558-1563 (2003)). Compounds 34-37 were incubated separately with the enzyme for a given time, and then the reaction was stopped by the addition of 100 μL of methanol. The reaction products for compounds 34-37 were extracted with 500 μL of ethyl acetate. The quantification of the alcohol products was performed by LC/MS analysis of 2 μL of the organic phase. The Cterm-EH activity was measured as described previously in buffer A, using either racemic 4-nitrophenyl-trans-2,3-epoxy-3-phenylpropyl carbonate (Dietze et al., Anal. Biochem. 216, 176-187 (1994)) or racemic [^3H]-trans-1,3-diphenylpropene oxide as substrate (Borhan et al., Anal. Biochem. 231, 188-200 (1995)). This latter substrate was also used to measure the activity of the cress sEH and the truncated human sEH.

The target in assay [2] is T2, Human Cterm-EH (Homo sapiens, UniProt P34913).
T2 construct: use of a truncated enzyme from crude extract versus purified full-length human sEH; made in house; host or cells: baculovirus expression system (insect cells)
T2 sequence (P34913 1-555): T1 sequence (P34913 1-555)
Put plainly: Inhibition of Cterm-EH activity by lipid-phosphates, fluorescent assay.

The target in assay [3] is T3, Human sEH Cterm-EH activity (Homo sapiens, UniProt P34913).
T3 construct: use of a truncated enzyme from crude extract versus purified full-length human sEH; made in house; host or cells: baculovirus expression system (insect cells)
T3 sequence (P34913 1-555): T1 sequence (P34913 1-555)
Nature of the assay: Cterm-EH inhibition IC50 with 4-nitrophenyl-trans-2,3-epoxy-3-phenylpropyl carbonate.

Assay [4] deals with T1, Nterm-phos. Nature of the assay: Kinetic parameters of Nterm-phos for poly-isoprenyl phosphates (LC/MS of alcohol products). How it is done:
Nterm-Phos activity was measured in Bis-Tris HCl buffer (25 mM PH 7.0) containing 0.1 mg/mL of Fraction V BSA and 1 mM of MgCl2 (buffer A) at 30° C. […] APHP activity was measured as described using 7 as substrate (Newman et al., Proc. Natl. Acad. Sci. […] The quantification of the alcohol products was performed by LC/MS analysis of 2 μL of the organic phase. […] This latter substrate was also used to measure the activity of the cress sEH and the truncated human sEH. […] The Shimadzu […] HPLC system (Shimadzu Scientific Instruments, Columbia, Md.) was set at a flow rate of 0.2 mL/min, and a 2.1×30 mm XTerraTM MS C18 3.5 μm column (Waters, Milford, Mass.) held at 20° C. The samples were kept at 10° C. in the auto-sampler. […] A solvent system consisting of water with 0.1% formic acid (solvent A) and acetonitrile with 0.1% formic acid (solvent B) was used and set at a flow rate of 0.25 mL/min. […] Pyrophosphate was analyzed by direct injection of 5 μL sample into the mass spectrometer at 0.05 mL/min flow rate of 50% A and 50% B. Analytes were detected by electrospray ionization-tandem quadrupole mass spectrometry in multiple reaction monitoring mode (MRM) using a Quattro Premier tandem quadrupole mass spectrometer (Micromass, Manchester, UK). Nitrogen gas flow rates were fixed with a cone gas flow of 25 L/h and a desolvation gas flow of 700 L/h. Electrospray ionization of geraniol, farnesol and geranylgeraniol was performed in positive mode with a capillary voltage fixed at 3.20 kV and a cone voltage fixed at 25 V using a source temperature of 125° C. and a desolvation temperature of 350° C. Capillary voltage and cone voltage were optimized in an infusion experiment. […] However, intense [M+H-18]^+ ions were produced in the source due to water loss. Therefore, these ions were selected as precursor ions to set MRM acquisition mode. Monitored transitions were 137>95 m/z for geraniol, 205>121 m/z for farnesol, and 273>149 m/z for geranylgeraniol at collision voltage of 15 V for all analytes. Argon was used as collision gas (2.2×10^-3 Torr). […] Chromatogram integration and analyte quantification was performed with QuantLynx module of the MassLynx 4.0 software (Micromass, Manchester, UK).

[5] abbreviates: substrate 50 μM, 5 min preincubation, 30° C., read-out: IC50.

Consider `CC(C)=CCC/C(C)=C/CC/C(C)=C/C1C(COP(=O)(O)OP(=O)(O)O)C1(C)CC/C=C(\C)CCC=C(C)C` (stereo in doubt) [Pre-squalene diphosphate (PSDP), Pre-squalene diphosphate], for which the “Spec. Act.” value in assay [1] amounted to 30 ± 15 nmol/min/mg. Also, the “Inhibition (%)” value in assay [2] ([LP] 14 μM) turned out to be 86%.

As to `CC(C)=CCC/C(C)=C/CC/C(C)=C/C1C(COP(=O)(O)O)C1(C)CC/C=C(\C)CCC=C(C)C` (stereo in doubt) [Pre-squalene monophosphate (PSMP), Pre-squalene monophosphate], in assay [1], the “Spec. Act.” value worked out at 54 ± 22 nmol/min/mg. In addition, in assay [2] ([LP] 14 μM), the “Inhibition (%)” value is recorded as 30%.

`CCCCCCCC/C=C\CCCCCCCC(=O)OCC(COP(=O)(O)O)OC(=O)CCCCCCC/C=C\CCCCCCCC` (stereo not drawn) [1,2-Dioleoyl-glycerol-3-phosphate (DOGP), 1,2-Dioleoyl-glycerol-3-phosphate]: the “Spec. Act.” value in assay [1] was under 0.3 nmol/min/mg.

On to `CCCCCCCCCCCCCCCCC(C(=O)O)S(=O)(=O)O` (stereo not drawn) [Compound 10, α-Sulfostearic acid], for which, in assay [3] (setting [5]), the IC50 was over 100 µM.

In the case of `CCCCCCCCCCCCS(=O)(=O)O` [Compound 12, Sodium dodecyl-sulfonate], in assay [3] (setting [5]), the 50% inhibitory concentration (IC50) is over 100 µM.

As for `O=[N+]([O-])c1ccc(OS(=O)(=O)O)cc1` [Compound 13, 4-Nitrophenyl sulfate], the IC50 in assay [3] (setting [5]) is over 100 µM.

As for `C[C@H](CCC(=O)NCCS(=O)(=O)O)[C@H]1CC[C@H]2[C@@H]3CC[C@@H]4C[C@H](OS(=O)(=O)O)CC[C@]4(C)[C@H]3CC[C@]12C` [Compound 14, Taurolithocholic acid 3-sulfate], the IC50 in assay [3] (read-out: IC50) is 90 ± 5 µM.

As for `C[C@H](CCC(=O)NCCS(=O)(=O)O)[C@H]1CC[C@H]2[C@@H]3[C@H](O)C[C@@H]4C[C@H](O)CC[C@]4(C)[C@H]3C[C@H](O)[C@]12C` [Compound 15, Taurocholic acid], the IC50 in assay [3] is over 100 µM.

As to `C[C@]12CC[C@@H]3c4ccc(OS(=O)(=O)O)cc4CC[C@H]3[C@@H]1CCC2=O` [Compound 16, Estrone-3-sulfate], the IC50 in assay [3] (setting [5]) was over 100 µM.

With `O=C[C@H](O)[C@@H](O)[C@@H](O)[C@H](O)COS(=O)(=O)O` [Compound 17, D-Galactose-6-sulfate], in assay [3] (setting [5]), the IC50 is over 100 µM.

In the case of `O=C1O[C@H]([C@@H](O)CO)C(O)=C1OS(=O)(=O)O` [Compound 18, L-Ascorbic acid 2-sulfate dipotassium salt], the IC50 in assay [3] (setting [5]) is over 100 µM.

For `CC(=O)N[C@H]1C(O)O[C@H](CO)[C@H](OS(=O)(=O)O)[C@@H]1O` (stereo partly drawn) [Compound 19, N-Acetyl-D-galactosamine 4-sulfate], the IC50 in assay [3] (setting [5]) was over 100 µM.

`CC(C)OP(=O)(CP(=O)(OC(C)C)OC(C)C)OC(C)C` [Compound 20, Tetra-isopropyl-methylene diphosphonate]: the IC50 in assay [3] (setting [5]) was over 100 µM.

Take `CCOP(=O)(OCC)C(=O)c1ccccc1` [Compound 22, Diethyl-benzoylphosphonate]: the IC50 in assay [3] is over 100 µM.

Consider `CCOP(=O)(C/C=C/c1ccccc1)OCC` [Compound 24, Diethyl trans-cinnamyl-phosphonate], for which the IC50 in assay [3] is over 100 µM.

Turning to `CCOP(=O)(Cc1ccc(C)cc1)OCC` [Compound 25, Diethyl 4-methylbenzyl-phosphonate], the IC50 in assay [3] was over 100 µM.

Take `CCCCCCCCOP(=O)(OCCCCCCCC)c1ccccc1` [Compound 27, Dioctyl-phenyl-phosphonate]: the IC50 in assay [3] (setting [5]) is 92 ± 3 µM.

As for `O=P(O)(OCc1ccccc1)OCc1ccccc1` [Compound 28, Di-benzyl-phosphate], in assay [3] (setting [5]), the IC50 was over 100 µM.

With `CCCCCC(=O)CP(=O)(OC)OC` [Compound 29, Dimethyl (2-oxoheptyl)-phosphonate], the IC50 in assay [3] was over 100 µM.

Turning to `CCOP(=O)(OCC)C(O)C(F)(F)F` (stereo not drawn) [Compound 30, Diethyl (2,2,2-trifluoro-1-hydroxyethyl)-phosphonate], in assay [3], the IC50 is over 100 µM.

Regarding `CCOP(=O)(CSCC)OCC` [Compound 31, Diethyl (ethyltiomethyl)phosphonate], in assay [3], the IC50 is over 100 µM.

Consider `CCCCCCCCCCCCP(=O)(O)O` [Compound 33, Dodecyl phosphonic acid], for which the IC50 in assay [3] (setting [5]) is over 100 µM.

As to `CC(C)=CCC/C(C)=C/COP(=O)(O)OP(=O)(O)O` [Compound 34, Geranyl-pyrophosphate], the Km in assay [4] (linear curve, above the highest concentration tested) was over 5 µM.

As to `CC(C)=CCC/C(C)=C/CC/C(C)=C/COP(=O)(O)OP(=O)(O)O` [Compound 35, Farnesyl-pyrophosphate], in assay [1], the “Spec. Act.” value was found to be 32 ± 7 nmol/min/mg. In addition, in assay [4] (compound as substrate), the Hill coefficient was 1.0 ± 0.1, the Km was 10.1 ± 1.1 µM and the VM amounted to 12.5 ± 1.0 nmol/min/mg. The “Inhibition (%)” value in assay [2] ([LP] 10 μM) was determined as 60%.

In the case of `CC(C)=CCC/C(C)=C/CC/C(C)=C/CC/C(C)=C/COP(=O)(O)OP(=O)(O)O` [Compound 36, Geranylgeranyl-pyrophosphate], in assay [4] (compound as substrate), the Hill coefficient is on record as 1.0 ± 0.2, the Km turned out to be 3.4 ± 1.6 µM and the VM was found to be 4.7 ± 1.1 nmol/min/mg. In addition, the “Inhibition (%)” value in assay [2] ([LP] 10 μM) stood at 45%.

Consider `CC(C)=CCC/C(C)=C\CC/C(C)=C\COP(=O)(O)O` [Compound 37, Farnesyl monophosphate], for which the “hydrolyzed faster than the corresponding pyrophosphate derivative” value in assay [4] is “approximately 50 fold”. Also, in assay [4] (compound as substrate), the Hill coefficient is recorded as 1.0 ± 0.1, the Km was determined as 5.7 ± 0.4 µM and the VM was determined as 303 ± 19 nmol/min/mg.

Consider `CCCCCCCCCCCCCC=CC(O)C(COP(=O)(O)O)NC(=O)CCCCCCC` (stereo not drawn) [N-Octyl-ceramide-1-phosphate (OCP), N-Octyl-ceramide-1-phosphate], for which the “Spec. Act.” value in assay [1] was under 0.3 nmol/min/mg. Also, the “Inhibition (%)” value in assay [2] ([LP] 50 μM) turned out to be 31%.

For the compound `CCCCCCCCCCCCC/C=C/[C@@H](O)[C@@H](N)COP(=O)(O)O` [Sphingosine-1-phosphate (S1P), Sphingosine-1-phosphate], in assay [1], the “Spec. Act.” value came out at 1.1 ± 0.1 nmol/min/mg. Further, the inhibition at 40 µM in assay [2] ([LP] 40 μM) turned out to be 2%.
